The values below come from ChEMBL document CHEMBL5465560, “Selectivity Literature for EUbOPEN Chemogenomic Library” (2024).

In test [1] the target is T1, Membrane-associated tyrosine- and threonine-specific cdc2-inhibitory kinase (Homo sapiens) (UniProt Q99640).
T1 sequence (whole entry): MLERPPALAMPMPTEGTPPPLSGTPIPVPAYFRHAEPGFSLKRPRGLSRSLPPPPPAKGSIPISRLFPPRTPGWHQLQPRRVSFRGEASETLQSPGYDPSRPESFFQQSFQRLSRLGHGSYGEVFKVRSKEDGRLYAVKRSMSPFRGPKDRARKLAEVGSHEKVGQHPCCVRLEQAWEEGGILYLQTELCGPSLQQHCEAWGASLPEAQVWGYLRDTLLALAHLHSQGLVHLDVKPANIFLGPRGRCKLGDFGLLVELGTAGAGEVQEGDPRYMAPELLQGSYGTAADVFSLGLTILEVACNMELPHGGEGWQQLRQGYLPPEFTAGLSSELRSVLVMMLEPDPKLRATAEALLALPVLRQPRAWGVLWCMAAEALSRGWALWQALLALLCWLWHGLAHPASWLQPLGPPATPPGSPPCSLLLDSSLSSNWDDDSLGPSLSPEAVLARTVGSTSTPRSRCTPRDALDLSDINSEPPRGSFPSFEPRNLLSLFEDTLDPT
The experiment in a line: Selectivity interaction (LanthaScreen Eu Kinase Binding Assay) EUB0001632a PKMYT1. To be noted: at 10 µM. (In general: TR-FRET usually uses a lanthanide donor and a delayed reading to cut background.)

In test [2] the target is Leucine-rich repeat serine/threonine-protein kinase 2 (Homo sapiens, UniProt Q5S007). The test can be described thus: (§1) Selectivity interaction (KinomeScan (DiscoverX)) EUB0000607a LRRK2. To be noted: at 10 µM.
The test system of test [3] is Leucine-rich repeat serine/threonine-protein kinase 2 (Homo sapiens), Q5S007 [G2019S]. Described as §1. To be noted: at 10 µM.
In test [4] the target is Dual specificity mitogen-activated protein kinase kinase 1 (Homo sapiens, UniProt Q02750). The experiment in a line: Selectivity interaction (KinomeScan (DiscoverX)) EUB0000607a MAP2K1. To be noted: at 10 µM.
Chain of Dual specificity mitogen-activated protein kinase kinase 1 (Q02750 whole entry): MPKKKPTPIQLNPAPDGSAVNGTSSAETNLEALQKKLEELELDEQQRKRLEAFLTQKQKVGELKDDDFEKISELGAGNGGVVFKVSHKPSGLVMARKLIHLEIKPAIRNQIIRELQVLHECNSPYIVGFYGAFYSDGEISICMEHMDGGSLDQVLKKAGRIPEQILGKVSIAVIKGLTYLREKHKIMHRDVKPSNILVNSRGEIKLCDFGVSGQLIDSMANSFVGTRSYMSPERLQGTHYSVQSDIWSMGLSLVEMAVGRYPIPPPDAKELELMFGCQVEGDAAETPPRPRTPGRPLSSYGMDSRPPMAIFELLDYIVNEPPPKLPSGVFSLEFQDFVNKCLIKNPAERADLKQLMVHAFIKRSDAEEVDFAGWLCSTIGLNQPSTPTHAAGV
In test [5] the target is T2, Serine/threonine-protein kinase ULK1 (Homo sapiens) (UniProt O75385).
T2 sequence (whole entry): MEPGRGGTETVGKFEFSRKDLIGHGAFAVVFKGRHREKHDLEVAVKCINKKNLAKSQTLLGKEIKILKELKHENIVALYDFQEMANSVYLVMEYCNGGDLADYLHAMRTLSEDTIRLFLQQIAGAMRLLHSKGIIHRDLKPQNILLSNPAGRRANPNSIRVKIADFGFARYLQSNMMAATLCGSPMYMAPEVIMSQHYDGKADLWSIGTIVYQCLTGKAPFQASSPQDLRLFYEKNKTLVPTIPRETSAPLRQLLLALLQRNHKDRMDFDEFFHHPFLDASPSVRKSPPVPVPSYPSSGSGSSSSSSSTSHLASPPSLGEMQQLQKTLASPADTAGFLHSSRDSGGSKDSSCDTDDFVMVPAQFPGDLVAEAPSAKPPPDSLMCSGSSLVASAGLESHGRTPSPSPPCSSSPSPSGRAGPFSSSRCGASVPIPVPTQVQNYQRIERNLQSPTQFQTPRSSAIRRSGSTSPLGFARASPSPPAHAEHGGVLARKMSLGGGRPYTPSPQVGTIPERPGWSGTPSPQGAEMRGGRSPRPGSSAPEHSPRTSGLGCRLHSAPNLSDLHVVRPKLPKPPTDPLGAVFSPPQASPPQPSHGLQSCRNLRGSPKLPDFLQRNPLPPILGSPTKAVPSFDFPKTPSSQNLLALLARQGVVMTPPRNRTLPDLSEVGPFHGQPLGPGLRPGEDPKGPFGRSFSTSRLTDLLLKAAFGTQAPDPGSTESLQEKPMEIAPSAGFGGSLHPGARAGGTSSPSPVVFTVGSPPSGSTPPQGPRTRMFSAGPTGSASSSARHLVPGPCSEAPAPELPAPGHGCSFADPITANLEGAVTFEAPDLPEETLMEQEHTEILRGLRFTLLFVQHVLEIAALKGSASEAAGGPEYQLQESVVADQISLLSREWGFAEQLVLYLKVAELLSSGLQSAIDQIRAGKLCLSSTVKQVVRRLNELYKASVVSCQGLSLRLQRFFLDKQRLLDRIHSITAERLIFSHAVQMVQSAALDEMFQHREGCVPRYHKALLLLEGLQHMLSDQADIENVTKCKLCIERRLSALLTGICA
The test can be described thus: Selectivity interaction (KinomeScan (DiscoverX)) EUB0000666a ULK1. To be noted: at 10 µM.

The target of test [6] is N-lysine methyltransferase SMYD2 (Homo sapiens) (UniProt Q9NRG4). As to conditions: at 1 µM.
Chain of N-lysine methyltransferase SMYD2 (Homo sapiens) (Q9NRG4 whole entry): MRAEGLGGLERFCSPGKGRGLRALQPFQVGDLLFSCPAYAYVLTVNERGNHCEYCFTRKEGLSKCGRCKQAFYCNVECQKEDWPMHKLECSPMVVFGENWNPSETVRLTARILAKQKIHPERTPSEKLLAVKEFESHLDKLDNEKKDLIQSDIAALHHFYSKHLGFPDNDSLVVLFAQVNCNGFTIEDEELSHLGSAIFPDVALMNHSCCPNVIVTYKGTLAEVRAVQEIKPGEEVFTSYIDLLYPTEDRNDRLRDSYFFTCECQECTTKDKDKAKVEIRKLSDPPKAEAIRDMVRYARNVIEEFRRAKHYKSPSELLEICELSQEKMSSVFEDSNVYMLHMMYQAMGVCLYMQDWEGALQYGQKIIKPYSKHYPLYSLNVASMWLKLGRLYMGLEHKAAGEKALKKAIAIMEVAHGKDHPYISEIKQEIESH
In test [7] the target is cAMP-dependent protein kinase catalytic subunit alpha (Homo sapiens, UniProt P17612). As to conditions: at 10 µM.
In test [8] the target is Receptor-interacting serine/threonine-protein kinase 2 (Homo sapiens, UniProt O43353). To be noted: at 10 µM.
Chain of Receptor-interacting serine/threonine-protein kinase 2 (O43353 whole entry): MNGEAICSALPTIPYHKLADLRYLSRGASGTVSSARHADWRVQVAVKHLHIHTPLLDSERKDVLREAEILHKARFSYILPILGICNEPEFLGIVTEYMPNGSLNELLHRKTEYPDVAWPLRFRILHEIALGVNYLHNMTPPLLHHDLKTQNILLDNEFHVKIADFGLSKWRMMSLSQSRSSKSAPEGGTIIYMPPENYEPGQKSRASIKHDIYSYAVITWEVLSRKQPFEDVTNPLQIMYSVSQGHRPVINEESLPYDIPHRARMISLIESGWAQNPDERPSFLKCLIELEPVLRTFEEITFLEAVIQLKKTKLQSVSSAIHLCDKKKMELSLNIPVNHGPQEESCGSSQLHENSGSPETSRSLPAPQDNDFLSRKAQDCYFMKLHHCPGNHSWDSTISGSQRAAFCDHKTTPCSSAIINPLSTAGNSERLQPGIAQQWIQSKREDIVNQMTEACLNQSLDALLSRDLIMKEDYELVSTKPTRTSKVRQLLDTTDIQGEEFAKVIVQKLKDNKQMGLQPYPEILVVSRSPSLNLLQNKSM
The target in test [9] is 5'-AMP-activated protein kinase catalytic subunit alpha-1 (Homo sapiens, UniProt Q13131). The test can be described thus: Selectivity interaction (KinomeScan (DiscoverX)) EUB0001049a PRKAA1. As to conditions: at 1 µM.
Chain of 5'-AMP-activated protein kinase catalytic subunit alpha-1 (Q13131 whole entry, looked up): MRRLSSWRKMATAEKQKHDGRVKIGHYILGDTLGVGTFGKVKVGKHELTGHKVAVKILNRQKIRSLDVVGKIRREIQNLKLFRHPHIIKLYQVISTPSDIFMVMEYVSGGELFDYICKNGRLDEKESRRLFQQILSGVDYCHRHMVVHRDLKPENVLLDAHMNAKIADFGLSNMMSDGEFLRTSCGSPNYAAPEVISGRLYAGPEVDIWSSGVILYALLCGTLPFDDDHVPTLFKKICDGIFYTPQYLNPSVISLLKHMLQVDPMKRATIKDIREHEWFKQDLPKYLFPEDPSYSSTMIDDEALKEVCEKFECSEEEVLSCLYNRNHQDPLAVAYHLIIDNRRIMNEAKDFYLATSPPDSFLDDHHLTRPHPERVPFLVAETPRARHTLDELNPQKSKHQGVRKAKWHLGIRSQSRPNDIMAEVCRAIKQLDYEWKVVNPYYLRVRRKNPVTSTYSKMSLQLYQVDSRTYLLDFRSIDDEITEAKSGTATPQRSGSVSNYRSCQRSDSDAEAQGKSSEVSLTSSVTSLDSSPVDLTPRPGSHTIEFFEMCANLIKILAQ
In test [10] the target is Chromatin remodeling regulator CECR2 (Homo sapiens, UniProt Q9BXF3). The test can be described thus: Selectivity interaction (Human bromodomain panel (DSF assay)) EUB0000233b CECR2. For orientation: Differential scanning fluorimetry follows unfolding on heating by fluorescence.
Chain of Chromatin remodeling regulator CECR2 (Q9BXF3 whole entry, looked up): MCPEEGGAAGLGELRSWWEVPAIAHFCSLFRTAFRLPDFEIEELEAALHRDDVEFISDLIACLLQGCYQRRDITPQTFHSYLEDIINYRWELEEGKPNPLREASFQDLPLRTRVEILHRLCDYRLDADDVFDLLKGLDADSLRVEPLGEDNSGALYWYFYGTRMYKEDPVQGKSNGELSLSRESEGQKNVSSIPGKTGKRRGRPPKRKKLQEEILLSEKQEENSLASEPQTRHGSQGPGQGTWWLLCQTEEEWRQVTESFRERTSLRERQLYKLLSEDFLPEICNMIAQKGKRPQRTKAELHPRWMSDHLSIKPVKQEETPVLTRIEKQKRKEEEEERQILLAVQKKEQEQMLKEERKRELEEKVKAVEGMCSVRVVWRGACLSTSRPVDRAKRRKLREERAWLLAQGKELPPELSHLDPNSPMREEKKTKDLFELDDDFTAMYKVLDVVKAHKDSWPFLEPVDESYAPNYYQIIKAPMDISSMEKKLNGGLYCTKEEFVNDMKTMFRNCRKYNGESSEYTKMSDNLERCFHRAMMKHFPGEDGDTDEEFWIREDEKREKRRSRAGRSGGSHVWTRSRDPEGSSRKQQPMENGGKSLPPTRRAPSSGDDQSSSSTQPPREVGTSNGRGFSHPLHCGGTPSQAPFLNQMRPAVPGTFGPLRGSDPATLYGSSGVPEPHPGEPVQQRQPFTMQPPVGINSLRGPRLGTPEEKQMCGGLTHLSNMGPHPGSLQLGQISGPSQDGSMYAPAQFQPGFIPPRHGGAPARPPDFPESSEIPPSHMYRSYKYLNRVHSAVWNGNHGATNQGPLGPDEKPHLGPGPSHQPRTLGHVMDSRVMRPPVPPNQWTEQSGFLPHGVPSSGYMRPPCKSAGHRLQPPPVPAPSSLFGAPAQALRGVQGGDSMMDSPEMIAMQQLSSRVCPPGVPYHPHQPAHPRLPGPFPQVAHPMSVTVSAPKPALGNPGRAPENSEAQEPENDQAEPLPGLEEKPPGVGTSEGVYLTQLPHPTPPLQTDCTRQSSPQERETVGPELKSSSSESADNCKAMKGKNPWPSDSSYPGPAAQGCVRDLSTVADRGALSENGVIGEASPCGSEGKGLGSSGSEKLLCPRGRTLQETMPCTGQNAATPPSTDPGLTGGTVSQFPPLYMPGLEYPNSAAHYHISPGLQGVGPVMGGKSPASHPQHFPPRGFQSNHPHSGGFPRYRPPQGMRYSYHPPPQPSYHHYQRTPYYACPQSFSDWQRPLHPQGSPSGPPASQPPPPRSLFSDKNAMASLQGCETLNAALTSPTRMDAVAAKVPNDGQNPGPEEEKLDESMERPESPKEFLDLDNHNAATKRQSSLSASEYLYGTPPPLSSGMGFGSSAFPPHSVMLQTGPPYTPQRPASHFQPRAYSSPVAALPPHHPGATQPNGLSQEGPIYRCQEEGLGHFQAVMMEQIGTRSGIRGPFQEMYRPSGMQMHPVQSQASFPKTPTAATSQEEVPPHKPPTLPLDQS
The target of test [11] is Casein kinase II subunit alpha' (Homo sapiens) (UniProt P19784). The experiment in a line: Selectivity interaction (KinomeScan (DiscoverX)) EUB0000092b CSNK2A2. As to conditions: at 10 µM.
Chain of Casein kinase II subunit alpha' (Homo sapiens) (P19784 whole entry, looked up): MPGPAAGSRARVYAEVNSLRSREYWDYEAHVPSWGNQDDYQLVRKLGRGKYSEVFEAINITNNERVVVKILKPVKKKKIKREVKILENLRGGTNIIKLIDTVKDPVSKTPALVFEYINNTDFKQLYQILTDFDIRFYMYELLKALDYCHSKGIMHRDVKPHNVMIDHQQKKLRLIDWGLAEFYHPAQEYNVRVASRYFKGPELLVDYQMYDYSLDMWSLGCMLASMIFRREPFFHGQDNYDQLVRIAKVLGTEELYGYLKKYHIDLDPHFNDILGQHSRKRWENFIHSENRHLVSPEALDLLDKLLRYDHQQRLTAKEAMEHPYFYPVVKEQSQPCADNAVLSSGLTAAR

Consider `Cn1cc(-n2cnc3c(NCc4nc5cc(Cl)c(Cl)cc5[nH]4)nc(N4CCOCC4)nc32)cn1`, for which the % of inhibition in test [1] is -3.65%. Regarding `CNC(=O)Nc1ccc(-c2nc(N3CC4CCC(C3)O4)c3cnn(C4CCC5(CC4)OCCO5)c3n2)cc1`, the % of control in [2] amounted to 82%; in test [3], 65%; in test [4], 100%. The compound `O=C(NOC[C@H](O)CO)c1ccc(F)c(F)c1Nc1ccc(I)cc1F` returned a % of control in test [5] of 100%. For `CNCCN1CCC(c2cc(CN(C)C(=O)c3cccc(Oc4ccccc4)c3)ccn2)CC1`, the % activity in [6] was greater than 90%. As for `CCN(CC)CCCCNc1ncc2cc(-c3cc(OC)cc(OC)c3)c(NC(=O)NC(C)(C)C)nc2n1`, the % of control in [7] and in [8] was 100% throughout. The compound `COc1cc(Nc2nc(C)cc(-c3cnn4nc(OC)ccc34)n2)cc(C(F)(F)F)c1` returned a % of control in test [9] of 87%. Take `CN(C)CCCOc1ccc(-c2cc(NCCCn3cccn3)nc(S(C)(=O)=O)n2)cc1`: the dTM in test [10] was found to be 11.1 K. The compound `CCC(=O)N1CCN(c2ccc(-n3c(=O)ccc4cnc5ccc(-c6cnc7ccccc7c6)cc5c43)cc2C(F)(F)F)CC1` showed a % of control in [11] of 11%.
